# From publication PMC12057046, “Elucidation of short linear motif-based interactions of the MIT and rhodanese domains of the ubiquitin-specific protease 8” (Biology Direct, 2025)
# Legend:
# USP8 MIT domain [1] = assay: Proteomic peptide-phage display (ProP-PD) selection against USP8 MIT domain; type: binding, human; parameters: Confidence: scale not given here
# Description: We explored the peptide-binding of the USP8 MIT domain by using the purified GST-tagged MIT domain as bait in proteomic peptide-phage display (ProP-PD) selections and a library designed to display the predicted unstructured regions of the human proteome. The peptide-coding regions of the binding-enriched phage pools were analysed by next-generation sequencing (NGS). After filtering for high confidence ligands, ten ligands remained (Fig. 1B; Supplementary Table S1). None of the ten identified protein-protein interactions had been previously reported, based on comparison with the information available in IntAct, HIPPIE and BioGrid (February 2025). Of the USP8 interacting proteins found, the D site-binding protein (DBP), which is a clock-controlled transcription factor, appears as an interesting ligand as USP8 has been reported to be involved in controlling the circadian rhythm. Also, the CCDC88A-encoded protein Girdin is an interactor of potential biological relevance as it is a scaffolding protein involved in the EGFR pathway which USP8 is known to regulate. At the motif level, there was no shared consensus motif among the ten peptide ligands. However, by manual inspection we noticed that four of the peptides contained a shared [LI]xxR[IY]xxL sequence, which appears to be a variation of the [DE]xxLxxRLxxL[KR] MIM1 motif described in the Eukaryotic Linear Motif resource (ELM) (Fig. 1B). We performed a SPOT array alanine scanning analysis in which peptides are synthesised on a membrane, and where each amino acid position of the peptide is mutated to alanine (or glycine if alanine is in the wild type peptide) to evaluate the effect of the amino acid residues in binding. We tested two peptides containing the apparent MIM1-like motif, one from Girdin (Girdin1192 − 1207) and one from the histone-lysine N-methyltransferase SETD1B (SETD1B492 − 507). […] AlphaFold3 (AF3) modelling of the four peptides with the variant MIM1 motif and the MIT domain docked the peptides with high confidence (ipTM scores: HIVEP1_741 − 756: 0.87, Girdin1192 − 1207: 0.85, MLPH481 − 496: 0.82, SETD1B492 − 507: 0.75) at the expected MIM1 binding pocket (Fig. 1D). […] However, the USP8 MIT selection was dominated (more than 94% of NGS counts) by two peptides that lack an apparent MIM1 motif. The two peptides were from the EF-hand calcium-binding domain-containing protein 12 (EFCAB12_1 − 16: […]) and from DBP (DBP116 − 131: […]) (Fig. 1B). […] In comparison to this, the EFCAB12_1 − 16 peptide shares a potential Dx[YF]xxxH[SG] motif with the DBP116 − 131 (Fig. 1B). […] The AF3 model of DBP116 − 131 peptide supports the interaction of D120 of the DBP116 − 131 peptide with the residues K74 and N71 in the MIT domain (Fig. 1G), emphasizing the significance of the aspartic acid at this position. […] Of them, two peptides (SYNE2_853 − 868 and PKNOX1_56 − 71) where placed in the same binding site as the Girdin and DBP peptides with high confidences by AF3 modelling (ipTM 0.92 and 0.74; Supplementary Fig. S3).
# Four rounds of phage selections were carried out using the second generation human disorderome library or the constructed deep mutational scanning library. At least three individual replicates were used for each bait protein. 10 µg of GST-tagged proteins or GST control (diluted in PBS from the stock of proteins kept in the purification elution buffer) were immobilized in 100 µL PBS on a 96-well MaxiSorp (Nunc) plate overnight at 4 °C. The plates were incubated with blocking buffer (with 0.5% BSA in PBS) for 1 h at 4 °C followed by washing with 0.05% Tween 20 in PBS four times. The naïve phage library (10^11 CFU) was diluted in 1/5th volume PEG/NaCl (20% PEG-8000, 0.4 M NaCl) and 1X PBS, incubated on ice for 10 min and centrifuged at 10,000 [drawing 3] g for 10 min. The pellet was resuspended in the volume of PBS (100 µL/ well). […]
# USP8 MIT domain [2] = assay: SPOT array alanine scanning, USP8 MIT domain; type: binding, human; details: cellulose-bound peptides, GST-tagged MIT 100 µM, 5% skim milk TBST, overnight 4 °C, anti-GST HRP chemiluminescence; normalized to wild type
# Description: (§1) SPOT array alanine scanning of peptides was designed, and cellulose-bound peptides were synthesized using Fluorenylmethyloxycarbonyl (Fmoc) solid phase synthesis with a MultiPep synthesizer (INTAVIS Peptide Services, Tübingen, Germany). The membranes of predicted peptides were purchased by JPT Peptide Technologies (Berlin, Germany). The membranes were incubated with blocking buffer containing 5% skim milk in TBST (50 mM Tris, 150 mM NaCl pH 7.5, 0.05% Tween-20) for two hours at room temperature. The blocked membranes were incubated with GST-tagged proteins (100 µM for MIT domain and 150 µM for the Rhodanese domain) in blocking buffer overnight at 4 °C. After rinsed with TBST the membranes were incubated with HRP-conjugated anti-GST antibody (Cytiva, RPN1236; 1:3000 dilution) in blocking buffer for 1 h at 4 °C and subsequently rinsed with TBST to remove any excess antibody. The ECL reagent (Clarity Max Western ECL substrate, 1705062, BioRad) was used for chemiluminescence read-out with the ChemiDoc Imaging system (BioRad). The images were analysed with Fiji (ImageJ2 version 2.9.0). SLiMSearch4 was used to design the peptide arrays with known interactors predicted to contain the motifs. The background signal intensity was subtracted, and the corrected signal intensities were normalized to the positive control and presented as percentage.
# USP8 Rhod domain [3] = target: T1, USP8 Rhod domain (Homo sapiens, UniProt P40818); assay: ProP-PD selection against USP8 Rhod domain; type: binding; details: for NGS counts (%): ProP-PD, human disorderome library, GST-tagged Rhod bait, four rounds of selection, Fig. 3A; for max_counts: Total NGS counts; for Counts: fraction of NGS counts for a selection; for Promiscuity: number of baits selections where the peptide has been observed, calculated on the domain level; for Replicates: number of screens against the bait protein in which the peptide has been found; for Specificity: proportion for the current bait of the total NGS read counts of the peptide for all baits screened with this library
# T1 construct: USP8 Rhod (174–317) (UniProt: P40818); GST (cleaved yes); made in house; host or cells: Escherichia coli BL21-Gold (DE3)
# T1 sequence (P40818 174-317): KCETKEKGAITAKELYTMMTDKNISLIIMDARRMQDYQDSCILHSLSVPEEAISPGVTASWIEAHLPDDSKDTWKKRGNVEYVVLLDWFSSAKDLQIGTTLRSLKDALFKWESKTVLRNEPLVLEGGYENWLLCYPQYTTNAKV
# Description: We next evaluated the peptide binding of the Rhod domain by ProP-PD selections. […] (February 2025).
# Four rounds of phage selections were carried out using the second generation human disorderome library or the constructed deep mutational scanning library. At least three individual replicates were used for each bait protein. 10 µg of GST-tagged proteins or GST control (diluted in PBS from the stock of proteins kept in the purification elution buffer) were immobilized in 100 µL PBS on a 96-well MaxiSorp (Nunc) plate overnight at 4 °C. The plates were incubated with blocking buffer (with 0.5% BSA in PBS) for 1 h at 4 °C followed by washing with 0.05% Tween 20 in PBS four times. The naïve phage library (10^11 CFU) was diluted in 1/5th volume PEG/NaCl (20% PEG-8000, 0.4 M NaCl) and 1X PBS, incubated on ice for 10 min and centrifuged at 10,000 [drawing 3] g for 10 min. The pellet was resuspended in the volume of PBS (100 µL/ well). The GST-coated control plate was incubated with 100 µL library per well in PBS for 1 h at 4 °C to remove non-specific binders. The supernatant was transferred to the target wells and incubated for 2 h at 4 °C. The wells were washed five times with 0.05% Tween 20 in PBS and the bound phages were eluted with 100 µL per well log-phase E. coli OmniMAX by incubating at 37° C while shaking. After 30 min, M13KO7 helper phages were added and incubated for an additional 45 min. The bacterial cultures were transferred to 1 mL 2YT supplemented with 100 µg/mL carbenicillin, 30 µg/mL kanamycin and 0.3 mM IPTG and grew overnight at 37 °C while shaking. The following day the cultures were centrifuged for 10 min at 2,000 [drawing 4] g, 4 °C. 1/10th volume of 10 [drawing 5] PBS was added to adjust the pH and heated at 65 °C for 10 min. The phage pools from each round were used as in-phages for the next round of selections.
# The samples were prepared for NGS as previously described. […] The PCR products were normalized with 25 µL Mag-bind Total Pure NGS beads (Omega Biotek) and 10 µL of each eluted sample (Qiagen Elution Buffer) was pooled and cleaned-up with a PCR purification kit (Qiagen). The PCR product was confirmed by 2% agarose electrophoresis and the band was extracted with QIAquick Gel extraction Kit (Qiagen) and eluted with 30 µL TE buffer. The dsDNA was quantified using QuantiT PicoGreen dsDNA Assay Kit (Thermo Fisher) and sent for NGS (Illumina MiSeq v3, 1 × 150 bp read setup, 20% PhiX, NGI SciLifeLab facility, Sweden). The NGS data were demultiplexed, adapter regions were trimmed and sequences with an average quality of at least 20 were translated to peptide sequences. The NGS data were analysed using custom Python scripts. The total read NGS counts for each selection experiment of each peptide sequence were compiled and annotated in PepTools (https://slim.icr.ac.uk/tools/peptools/). Since ProP-PD is in essence a competition assay, the possibility of the input phage library influencing the selection outcome was explored. […] Pearson correlation coefficient and p-value were calculated using Python’s SciPy library.
# USP8 Rhod domain [4] = target: T1, USP8 Rhod domain; assay: SPOT array of predicted peptides from known interactors, USP8 Rhod domain; type: binding; details: for Percentage (%) normalized to highest intensity and corrected for background: Rhod-Peptide screening, SPOT array of predicted peptides, KIAA1614 positive control = 100
# Text: The results therefore support that the USP8 Rhod domain binds to two distinct types of motifs (Fig. 4A, B). We used the motifs to scan for matching motifs in previously reported interactors using the SLiMSearch algorithm (Supplementary Table S8 A). As there was no clear match for the TET3-type motif except from only one hit, we focused on the KIAA1614-type motif. […] Both TP63 and USP21 are previously reported USP8 substrates, and the interactions may potentially contribute to substrate targeting. […] As the SHANK3 peptides (351-[…]−365 and 392-[…]−406) are closely located in the primary structure of SHANK3, it is tempting to speculate that both motifs contribute to the interactions between the full-length proteins by increasing the local concentration of binding motifs. […] Taken together, we find that the USP8 Rhod domain is a peptide binding domain that can be bound by peptides of two distinct types of motifs, with the Rx[LI]xGxxxPxxL motif and variants thereof being found in known USP8 substrates.
# as §1
sequence,measurement,setting,value
"EVEHRDLEDRYNQLLK [Girdin1192 − 1207, CCDC88A-encoded protein Girdin peptide]",NGS counts (%),"USP8 MIT domain [1]; ProP-PD, human disorderome library, GST-tagged MIT bait, four rounds of selection, percent of NGS counts associated with each peptide, Fig. 1B",1.10%
same,max_counts,USP8 MIT domain [1]; Total NGS counts,80
same,Confidence,"USP8 MIT domain [1]; calculated based on four metrics: overlapping peptides, replicated peptides, motif match, peptide counts",2
same,Counts,USP8 MIT domain [1]; fraction of NGS counts for a selection,0.002924
same,Promiscuity,"USP8 MIT domain [1]; number of baits selections where the peptide has been observed, calculated on the domain level",1
same,Replicates,USP8 MIT domain [1]; number of screens against the bait protein in which the peptide has been found,3
same,Specificity,USP8 MIT domain [1]; proportion for the current bait of the total NGS read counts of the peptide for all baits screened with this library,1
same,residues important for binding by SPOT array alanine scanning,USP8 MIT domain [2],binding to the Girdin1192 − 1207 peptide was lost when the residues LExRYxxLL were mutated to alanine
"HIWHYDEEYLPDASKP [TTBK2, Tau-tubulin kinase 2 peptide 503-518]",NGS counts (%),USP8 Rhod domain [3],0.06%
same,max_counts,USP8 Rhod domain [3],76
same,Counts,USP8 Rhod domain [3],0.0007473
same,Promiscuity,USP8 Rhod domain [3],7
same,Replicates,USP8 Rhod domain [3],2
same,Specificity,USP8 Rhod domain [3],0.5152
"LMNFLGDSNPFNLLRM [BCL11B, B-cell lymphoma/leukemia 11B peptide 279-294]",NGS counts (%),USP8 Rhod domain [3],0.58%
same,max_counts,USP8 Rhod domain [3],421
same,Counts,USP8 Rhod domain [3],0.006181
same,Promiscuity,USP8 Rhod domain [3],6
same,Replicates,USP8 Rhod domain [3],3
same,Specificity,USP8 Rhod domain [3],0.9228
"QPNHGLALWEAKMKQL [TET3 1701-1716, Methylcytosine dioxygenase TET3 peptide, overlapping]",max_counts,USP8 Rhod domain [3],7
same,Counts,USP8 Rhod domain [3],0.00009459587683709846
same,Promiscuity,USP8 Rhod domain [3],2
same,Replicates,USP8 Rhod domain [3],3
same,Specificity,USP8 Rhod domain [3],0.8889
SPARSSPELLPSGV,Percentage (%) normalized to highest intensity and corrected for background,USP8 Rhod domain [4],1.56%
SPEKSSPQALVPNG,Percentage (%) normalized to highest intensity and corrected for background,USP8 Rhod domain [4],1%
SPLGRPESLLQSNTL,Percentage (%) normalized to highest intensity and corrected for background,USP8 Rhod domain [4],-0.544%
SQLPSSPAQLSCRS,Percentage (%) normalized to highest intensity and corrected for background,USP8 Rhod domain [4],9%
SRSLSPTRLLSLPPD,Percentage (%) normalized to highest intensity and corrected for background,USP8 Rhod domain [4],6.64%
SSNSHRSLDGLSRTQ,Percentage (%) normalized to highest intensity and corrected for background,USP8 Rhod domain [4],5.49%
SSTSTRHLQGVEFEM,Percentage (%) normalized to highest intensity and corrected for background,USP8 Rhod domain [4],-1.73%
SWAAGPGSLLAWLIL,Percentage (%) normalized to highest intensity and corrected for background,USP8 Rhod domain [4],1.45%
SYAKRRRLAGPSGLA,Percentage (%) normalized to highest intensity and corrected for background,USP8 Rhod domain [4],7%
SYAKRRRLAGPSGLA [SHANK3 peptide],SPOT intensity in words,"USP8 Rhod domain [4]; GST-tagged Rhod 150 µM, positive control KIAA1614_568 − 583, array of 42 predicted peptides",Weaker signals
TASSLPRKLLPWEEG,Percentage (%) normalized to highest intensity and corrected for background,USP8 Rhod domain [4],-1.1%
TGLTVPPALLRANSD,Percentage (%) normalized to highest intensity and corrected for background,USP8 Rhod domain [4],-1.11%
TRKFSSPPPLSITK,Percentage (%) normalized to highest intensity and corrected for background,USP8 Rhod domain [4],6%
"YDTLIIRDYTQSSSSL [GRM5, Metabotropic glutamate receptor 5 peptide 1197-1212]",NGS counts (%),USP8 Rhod domain [3],0.02%
same,max_counts,USP8 Rhod domain [3],23
same,Counts,USP8 Rhod domain [3],0.0001477
same,Promiscuity,USP8 Rhod domain [3],4
same,Replicates,USP8 Rhod domain [3],2
same,Specificity,USP8 Rhod domain [3],0.5417
